Results as given in patent publication US12331048B2, “Pyrido-[3,4-d]pyridazine amine derivatives useful as NLRP3 inhibitors” (Ventus Therapeutics U.S., Inc., priority 2022, dated 2025).
In brackets after ≈: the same amount, converted by molar mass. Where two headings read alike, the source gives them in different places.

Tests used:
NLRP3 = biological target: T1, NLRP3 (Homo sapiens, UniProt Q96P20); test: Human whole blood (hWB) NLRP3 assay; assay type: cell-based; conditions: LPS priming 1 μg/ml, ATP activation, read-out: hWB IC50 (raw activity data)
T1 construct: endogenous in cells
T1 sequence (Q96P20 whole entry): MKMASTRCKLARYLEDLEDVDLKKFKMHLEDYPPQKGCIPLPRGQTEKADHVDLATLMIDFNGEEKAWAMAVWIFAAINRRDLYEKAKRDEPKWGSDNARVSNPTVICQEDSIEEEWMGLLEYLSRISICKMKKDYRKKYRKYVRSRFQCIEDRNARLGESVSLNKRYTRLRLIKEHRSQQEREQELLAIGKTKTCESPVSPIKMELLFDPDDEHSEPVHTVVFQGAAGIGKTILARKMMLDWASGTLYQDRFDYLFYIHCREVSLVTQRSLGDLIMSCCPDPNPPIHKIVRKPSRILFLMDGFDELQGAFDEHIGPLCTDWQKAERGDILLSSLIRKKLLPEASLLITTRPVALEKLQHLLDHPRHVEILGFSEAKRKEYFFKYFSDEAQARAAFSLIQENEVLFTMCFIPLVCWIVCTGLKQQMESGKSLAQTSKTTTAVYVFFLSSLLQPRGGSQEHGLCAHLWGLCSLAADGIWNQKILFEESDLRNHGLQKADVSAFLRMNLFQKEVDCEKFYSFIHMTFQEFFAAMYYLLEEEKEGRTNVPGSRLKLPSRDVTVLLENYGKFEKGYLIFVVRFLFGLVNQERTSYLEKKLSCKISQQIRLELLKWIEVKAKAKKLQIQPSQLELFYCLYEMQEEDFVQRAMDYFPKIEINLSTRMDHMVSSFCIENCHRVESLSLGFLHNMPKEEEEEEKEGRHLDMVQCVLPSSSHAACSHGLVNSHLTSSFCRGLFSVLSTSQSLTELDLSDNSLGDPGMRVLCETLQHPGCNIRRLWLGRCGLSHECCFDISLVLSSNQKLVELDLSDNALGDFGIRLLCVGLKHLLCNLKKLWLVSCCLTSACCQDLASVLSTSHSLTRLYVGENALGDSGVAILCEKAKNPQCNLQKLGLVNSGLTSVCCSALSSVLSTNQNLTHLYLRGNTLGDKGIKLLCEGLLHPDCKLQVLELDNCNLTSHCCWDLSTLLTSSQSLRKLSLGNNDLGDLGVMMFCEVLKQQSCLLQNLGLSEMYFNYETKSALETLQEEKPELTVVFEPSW
Description: Heparin lithium coated tubes were used to collect blood from volunteers. Blood samples were distributed on 96 well plates using 90 μl per well. Priming was performed by adding 5 μl of LPS (O26:B6; Sigma L-2654) at a final concentration of 1 μg/ml for 4.5 hours in a humidified incubator with 37° C., 5% CO2. Thirty minutes prior to NLRP3 activation, 5 μl of a 20× compound solution or vehicle (2% DMSO) was added to each well and plates were incubated on a shaker (450 rpm) in a humidified incubator with 37° C., 5% CO2. Activation was then performed by adding 3.3 μl of a 31×ATP solution per well. At the end of the 30 minutes stimulation, the plates were centrifuged (800 g, 10 min. room temperature) and the plasma from each well was frozen at −80° C. […] levels in the supernatant were analyzed using a mesoscale discovery assay (MSD K151TUK) according to the manufacturers' instructions. Human whole blood was drawn from healthy volunteers after obtaining written informed consent.
Table D assigns each compound a code for potency in the human whole blood (hWB) NLRP3 Assay: A or B. According to the code. […] The corresponding raw activity data is also included.

[1] = Brain levels (kp and kpu,u) after oral administration; assay type: in vivo, CDI mice; conditions: mice, 20 mpk PO; for Kp at 24 h / Kpu,u (unbound brain-to-plasma ratio): CDI, mouse, brain / plasma, po, 20 mg/kg
Description: The in vivo total brain to plasma ratio was assessed in CDI mice after oral administration of the compound. Blood was collected at several timepoints up to 24 h, and transferred into plastic micro centrifuge tubes with EDTA-K2 as anticoagulant. Blood samples were centrifuged at 4000 g for 5 minutes at 4° C. to obtain plasma, then immediately frozen and stored at −75±15° C. prior to analysis. Animals were terminally anaesthetized with a rising concentration of CO2 gas at about 1 minute. At selected timepoints, whole brains were removed from the skull, rinsed in cold PBS to remove blood, dried with clean gauze, then frozen in liquid nitrogen and kept at −75±15° C. before analysis. At the time of analysis, brain samples were homogenized with PBS by tissue weight (g) to PBS volume (mL) ratio 1:3. Plasma and brain drug levels were quantified by LC/MS/MS on a AB Sciex Triple Quad 5500+ instrument, after separation on a HALO 160A ES-C18, 2.7 μm 2.1-50 mm column. Quantitation was performed using a calibration curve prepared in blank plasma or blank brain homogenate. The software WinNonlin (Phoenix™) was used for pharmacokinetic analysis from the concentrations versus time data, including the AUCinf and AUClast. The Kp ratio (total brain concentration over total plasma concentration) was calculated as (AUCtot,br)/(AUCtot,pl).
The unbound brain exposure was assessed as Kpuu, which is the free brain/free plasma concentration ratio (Cu,br/Cu,pl). The Cu,br/Cu,pl ratios were obtained from in vivo total brain to plasma ratios (Ctot,br/Ctot,pl) by using in vitro determined Fu,br and Fu,pl.
Plasma protein binding and brain homogenate protein binding were measured by equilibrium dialysis in a HTDialysis plate. The dialysis membranes were soaked in ultrapure water for 60 minutes to separate strips, then in 20% ethanol for 20 minutes, finally in dialysis buffer for 20 minutes. The dialysis set up was assembled according to the manufacturer's instruction. Each cell received 150 μL of plasma or brain homogenate spiked with 1 mM of compound, and dialyzed against an equal volume of dialysis buffer (PBS). The dialysis plate was sealed and incubated in an incubator at 37° C. with 5% CO2 at 100 rpm for 6 hours. At the end of incubation, compound concentration was measured in both chambers by LC-MS/MS on a Triple Quad™ 5500 from AB Inc after separation on a XSelect Hss T3 2.5μ (2.1×30 mm) column. Free fraction (Fu) was calculated as (Peak Area Ratio buffer chamber/Peak Area Ratio plasma chamber).
Kpuu was calculated as (AUCtot,br×Fu,br)/(AUCtot,pl×Fu,pl).
The below table also assigns each compound a code for kp and kpu,u values: A or B. According to the code. A represents a value of >0.3 and B represents a value of ≤0.3. […] The kpu,u was then calculated upon correcting this kp value with mouse plasma protein binding and mouse brain homogenates binding. A Kpu,u value >0.3 is brain penetrant, and Kpu,u value less than or equal to 0.3 is not brain penetrant. N.D.=not determined. The corresponding raw kp and kpu,u data is also included.

[2] = Solubility in phosphate buffered solution (PBS, pH 7.4); assay type: physicochemical; conditions: for solubility at 2 h: phosphate buffered solution (PBS), aqueous buffer, kinetic from dmso stock; for increase in solubility (PBS, pH 7.4) compared to Comparative Example 3: relative to Comparative Example 3 (6.7 uM)
Description: In additional embodiments, the solubility of compounds of the instant disclosure may be determined following known procedures, such as described in Alsenz and Kansy, Advanced Drug Delivery Reviews (2007) 59:546-567, and Wang et al. J Mass Spectrom. (2000) 35:71-76. For example, the kinetic solubility in physiologically relevant media, such as phosphate buffered solution (PBS, pH 7.4) or simulated gastric fluid (SGF), may be measured using serial dilution and two hour incubation period, followed by filtration, and reported in μM by LC-MS/MS. Thermodynamic solubility in physiologically relevant media may be measured by LC-MS/MS, after a twenty-four hour incubation, followed by filtration, and reported in mg/mL. Optimized solubility may be beneficial for manufacturing and further processing of the compound. Furthermore, optimized solubility allows for a more efficient in vitro analysis of the compound, including data collection around the compound's safety, drug-drug interactions, potency, selectivity, metabolism, and permeability. […]

[3] = whole brain AUC over 24 h divided by plasma AUC, read-out: kp (code)
[4] = whole brain AUC over 24 h divided by plasma AUC, read-out: kp (raw)
[5] = kp corrected with mouse plasma protein binding and mouse brain homogenate binding

| SMILES | IC50 (NLRP3) | Kp at 24 h [1, 3] | Kp at 24 h [1, 4] | solubility at 2 h [2] | increase in solubility (PBS, pH 7.4) compared to Comparative Example 3 [2] | Kpu,u (unbound brain-to-plasma ratio) [1, 5] | kpu,u (code) [1, 5] | kpu,u (raw) [1, 5] | kp (code) ([1]; whole brain AUC over 24 h divided by plasma AUC) |
| --- | --- | --- | --- | --- | --- | --- | --- | --- | --- |
| Cc1cc(C)c(-c2nnc(N[C@H]3COC(C)(C)C3)c3cnccc23)c(O)c1 (single isomer, unassigned) [Compound 24*] | 0.33 µM | ≤ 0.3 | 0.05 | 290 µM (≈ 106 µg/mL) | 43 fold | – | – | – | – |
| Cc1cc(O)c(-c2nnc(N[C@H]3COC(C)(C)C3)c3cnccc23)c(Cl)c1 (single isomer, unassigned) [Compound 26*] | 0.9 µM | ≤ 0.3 | 0.1 | 280 µM (≈ 108 µg/mL) | 42 fold | 0.17 | B (B represents a value of ≤0.3) | – | – |
| CC1(C)C[C@@H](Nc2nnc(-c3ccc(Cl)cc3O)c3ccncc23)CO1 [Comparative Example 3, (R)-5-chloro-2-(4-((5,5-dimethyltetrahydrofuran-3-yl)amino)pyrido[3,4-d]pyridazin-1-yl)phenol, reference compound] | – | > 0.3 | 0.4 | 6.7 µM (≈ 2.48 µg/mL) | – | – | A (A represents a value of >0.3) | 0.43 | – |
| Cc1cc(O)c(-c2nnc(N[C@H]3COC(C)(C)C3)c3cnccc23)c(F)c1 (single isomer, unassigned) [Compound 21*] | 0.46 µM | > 0.3 | 0.3 | 250 µM (≈ 92.1 µg/mL) | 37 fold | 0.76 | A (A represents a value of >0.3) | – | – |
| CC1(C)C[C@H](Nc2nnc(-c3ccc(OC(F)F)cc3O)c3ccncc23)CO1 (single isomer, unassigned) [Compound 9*] | 0.26 µM | > 0.3 | 0.4 | 45 µM (≈ 18.1 µg/mL) | 7 fold | 0.63 | A (A represents a value of >0.3) | – | A (A represents a value of >0.3) |
| C[C@@H]1COCC[C@H]1Nc1nnc(-c2ccc(Cl)cc2O)c2ccncc12 (single isomer, unassigned) [Compound 18A*] | 1.1 µM | > 0.3 | 0.73 | – | – | 0.3 | A (A represents a value of >0.3) | – | – |

Continued by falling IC50 (NLRP3), values first:

| IC50 (NLRP3) | Kp at 24 h [1, 3] | Kp at 24 h [1, 4] | solubility at 2 h [2] | increase in solubility (PBS, pH 7.4) compared to Comparative Example 3 [2] | Kpu,u (unbound brain-to-plasma ratio) [1, 5] | kpu,u (code) [1, 5] | kpu,u (raw) [1, 5] | kp (code) ([1]; whole brain AUC over 24 h divided by plasma AUC) | SMILES |
| --- | --- | --- | --- | --- | --- | --- | --- | --- | --- |
| 0.22 µM | > 0.3 | 0.44 | 180 µM (≈ 63.1 µg/mL) | 27 fold | 0.94 | A (A represents a value of >0.3) | – | – | Cc1ccc(-c2nnc(N[C@H]3COC(C)(C)C3)c3cnccc23)c(O)c1 [Compound 5, (R)-2-(4-((5,5-dimethyltetrahydrofuran-3-yl)amino)pyrido[3,4-d]pyridazin-1-yl)-5-methylphenol] |
| 0.2 µM | – | 0.18 | – | – | 0.11 | B (B represents a value of ≤0.3) | – | – | OCC1(CNc2nnc(-c3ccc(Cl)cc3O)c3ccncc23)CC1 [Compound 8, 5-chloro-2-(4-(((1-(hydroxymethyl)cyclopropyl)methyl)amino)pyrido[3,4-d]pyridazin-1-yl)phenol, reference compound] |
| 0.19 µM | > 0.3 | 0.58 | – | – | 2.2 | A (A represents a value of >0.3) | – | – | CC1(C)COCC[C@@H]1Nc1nnc(-c2ccc(Cl)cc2O)c2ccncc12 (single isomer, unassigned) [Compound 3*] |
| 0.061 µM | ≤ 0.3 | 0.24 | 45 µM (≈ 18.1 µg/mL) | 7 fold | 0.52 | A (A represents a value of >0.3) | – | – | CC1(C)C[C@@H](Nc2nnc(-c3ccc(OC(F)F)cc3O)c3ccncc23)CO1 (single isomer, unassigned) [Compound 9B*] |
